Where “and” joins values, the source holds several entries; their conditions need not be identical. Equal values may be shown once.
Tested on: BDF1 mice, Adenocarcinoma 755 s.c., tumor weight T/C
Test: NCI In Vivo Anticancer Drug Screen. Data for tumor model Adenocarcinoma 755 (subcutaneous) in B6D2F1 (BDF1) mice
Details: endpoint: mean tumor weight, higher = larger tumour
How it was run: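 Transplantable tumor implanted; mice dosed with compound or vehicle; survival or tumor size recorded; ratio of treated to vehicle control reported.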

SMILES: O=C(NP(=O)(N1CC1)N1CC1)OCc1ccccc1
- T/C (dose: 0.38 mg/kg/injection, schedule: Q01DX011 (ip), vehicle: saline): 68 % of control
- T/C (dose: 0.75 mg/kg/injection, schedule: Q01DX011 (ip), vehicle: saline): 35 % of control
- T/C (dose: 1.5 mg/kg/injection, schedule: Q01DX011 (ip), vehicle: saline): 53 % of control
- T/C (dose: 2.25 mg/kg/injection, schedule: Q01DX011 (ip), vehicle: other): 74 % of control
- T/C (dose: 2.25 mg/kg/injection, schedule: Q01DX011 (ip), vehicle: saline): 115 % of control
- T/C (dose: 3.0 mg/kg/injection, schedule: Q01DX011 (ip), vehicle: saline): 18 % of control and 35 % of control
- T/C (dose: 4.5 mg/kg/injection, schedule: Q01DX011 (ip), vehicle: other): 83 % of control
- T/C (dose: 4.5 mg/kg/injection, schedule: Q01DX011 (ip), vehicle: saline): 98 % of control
- T/C (dose: 6.0 mg/kg/injection, schedule: Q01DX011 (ip), vehicle: saline): 18 % of control
- T/C (dose: 9.0 mg/kg/injection, schedule: Q01DX011 (ip), vehicle: other): 52 % of control
- T/C (dose: 9.0 mg/kg/injection, schedule: Q01DX011 (ip), vehicle: saline): 56 % of control
- T/C (dose: 12.0 mg/kg/injection, schedule: Q01DX011 (ip), vehicle: saline): 2 % of control
- T/C (dose: 18.0 mg/kg/injection, schedule: Q01DX011 (ip), vehicle: other): 12 % of control
- T/C (dose: 18.0 mg/kg/injection, schedule: Q01DX011 (ip), vehicle: saline): 29 % of control
- T/C (dose: 24.0 mg/kg/injection, schedule: Q01DX011 (ip), vehicle: saline): 1 % of control

SMILES: CC(=O)[C@@]1(O)CC[C@H]2[C@@H]3C[C@H](C)C4=CC(=O)C=C[C@]4(C)[C@@]3(F)[C@@H](O)C[C@@]21C
- T/C (dose: 0.37 mg/kg/injection, schedule: Q#A X022 (sc), vehicle: steriod suspending solution): 55 % of control
- T/C (dose: 0.5 mg/kg/injection, schedule: Q01DX011 (sc), vehicle: steriod suspending solution): 40 % of control
- T/C (dose: 0.75 mg/kg/injection, schedule: Q#A X022 (sc), vehicle: steriod suspending solution): 67 % of control
- T/C (dose: 1.0 mg/kg/injection, schedule: Q03DX004 (sc), vehicle: steriod suspending solution): 62 % of control
- T/C (dose: 1.5 mg/kg/injection, schedule: Q#A X022 (sc), vehicle: steriod suspending solution): 44 % of control
- T/C (dose: 1.6 mg/kg/injection, schedule: Q01DX011 (sc), vehicle: steriod suspending solution): 57 % of control
- T/C (dose: 2.0 mg/kg/injection, schedule: Q03DX004 (sc), vehicle: steriod suspending solution): 44 % of control
- T/C (dose: 3.0 mg/kg/injection, schedule: Q01DX011 (im), vehicle: steriod suspending solution): 43 % of control
- T/C (dose: 3.0 mg/kg/injection, schedule: Q01DX011 (sc), vehicle: steriod suspending solution): 47 % of control and 51 % of control
- T/C (dose: 3.0 mg/kg/injection, schedule: Q#A X022 (sc), vehicle: steriod suspending solution): 39 % of control
- T/C (dose: 3.2 mg/kg/injection, schedule: Q01DX011 (sc), vehicle: steriod suspending solution): 31 % of control
- T/C (dose: 4.0 mg/kg/injection, schedule: Q03DX004 (sc), vehicle: steriod suspending solution): 72 % of control
- T/C (dose: 6.0 mg/kg/injection, schedule: Q01DX011 (im), vehicle: steriod suspending solution): 38 % of control
- T/C (dose: 6.0 mg/kg/injection, schedule: Q01DX011 (sc), vehicle: steriod suspending solution): 16 % of control and 25 % of control
- T/C (dose: 6.3 mg/kg/injection, schedule: Q01DX011 (sc), vehicle: steriod suspending solution): 49 % of control
- T/C (dose: 8.0 mg/kg/injection, schedule: Q03DX004 (sc), vehicle: steriod suspending solution): 52 % of control
- T/C (dose: 9.0 mg/kg/injection, schedule: Q03DX004 (sc), vehicle: steriod suspending solution): 35 % of control
- T/C (dose: 12.0 mg/kg/injection, schedule: Q01DX011 (sc), vehicle: steriod suspending solution): 16 % of control
- T/C (dose: 12.5 mg/kg/injection, schedule: Q01DX006 (iv), vehicle: steriod suspending solution): 45 % of control
- T/C (dose: 12.5 mg/kg/injection, schedule: Q01DX011 (im), vehicle: steriod suspending solution): 21 % of control
- T/C (dose: 12.5 mg/kg/injection, schedule: Q01DX011 (ip), vehicle: steriod suspending solution): 48 % of control
- T/C (dose: 12.5 mg/kg/injection, schedule: Q01DX011 (sc), vehicle: steriod suspending solution): 19 % of control and 39 % of control
- T/C (dose: 18.0 mg/kg/injection, schedule: Q03DX004 (sc), vehicle: steriod suspending solution): 35 % of control
- T/C (dose: 22.0 mg/kg/injection, schedule: Q## X002 (sc), vehicle: steriod suspending solution): 55 % of control
- T/C (dose: 24.0 mg/kg/injection, schedule: Q01DX011 (sc), vehicle: steriod suspending solution): 20 % of control
- T/C (dose: 25.0 mg/kg/injection, schedule: Q01DX006 (iv), vehicle: steriod suspending solution): 30 % of control
- T/C (dose: 25.0 mg/kg/injection, schedule: Q01DX011 (im), vehicle: steriod suspending solution): 12 % of control
- T/C (dose: 25.0 mg/kg/injection, schedule: Q01DX011 (ip), vehicle: steriod suspending solution): 42 % of control
- T/C (dose: 25.0 mg/kg/injection, schedule: Q01DX011 (sc), vehicle: steriod suspending solution): 12 % of control
- T/C (dose: 27.5 mg/kg/injection, schedule: Q01DX011 (sc), vehicle: steriod suspending solution): 36 % of control and 54 % of control
- T/C (dose: 37.0 mg/kg/injection, schedule: Q03DX004 (sc), vehicle: steriod suspending solution): 36 % of control
- T/C (dose: 43.0 mg/kg/injection, schedule: Q## X002 (sc), vehicle: steriod suspending solution): 30 % of control
- T/C (dose: 50.0 mg/kg/injection, schedule: Q01DX006 (iv), vehicle: steriod suspending solution): 25 % of control
- T/C (dose: 50.0 mg/kg/injection, schedule: Q01DX011 (im), vehicle: steriod suspending solution): 14 % of control
- T/C (dose: 50.0 mg/kg/injection, schedule: Q01DX011 (ip), vehicle: steriod suspending solution): 34 % of control
- T/C (dose: 50.0 mg/kg/injection, schedule: Q01DX011 (oral), vehicle: steriod suspending solution): 47 % of control
- T/C (dose: 50.0 mg/kg/injection, schedule: Q01DX011 (sc), vehicle: steriod suspending solution): 11 % of control
- T/C (dose: 55.0 mg/kg/injection, schedule: Q01DX011 (sc), vehicle: steriod suspending solution): 28 % of control
- T/C (dose: 75.0 mg/kg/injection, schedule: Q03DX004 (sc), vehicle: steriod suspending solution): 18 % of control
- T/C (dose: 87.0 mg/kg/injection, schedule: Q01DX001 (sc), vehicle: steriod suspending solution): 53 % of control and 66 % of control
- T/C (dose: 87.0 mg/kg/injection, schedule: Q07DX002 (sc), vehicle: steriod suspending solution): 37 % of control
- T/C (dose: 100.0 mg/kg/injection, schedule: Q01DX006 (iv), vehicle: steriod suspending solution): 19 % of control
- T/C (dose: 100.0 mg/kg/injection, schedule: Q01DX011 (im), vehicle: steriod suspending solution): 7 % of control
- T/C (dose: 100.0 mg/kg/injection, schedule: Q01DX011 (oral), vehicle: steriod suspending solution): 59 % of control
- T/C (dose: 100.0 mg/kg/injection, schedule: Q01DX011 (sc), vehicle: steriod suspending solution): 13 % of control
- T/C (dose: 150.0 mg/kg/injection, schedule: Q03DX004 (sc), vehicle: steriod suspending solution): 25 % of control
- T/C (dose: 175.0 mg/kg/injection, schedule: Q01DX001 (sc), vehicle: steriod suspending solution): 38 % of control and 43 % of control
- T/C (dose: 175.0 mg/kg/injection, schedule: Q07DX002 (sc), vehicle: steriod suspending solution): 27 % of control
- T/C (dose: 200.0 mg/kg/injection, schedule: Q01DX006 (iv), vehicle: steriod suspending solution): 14 % of control
- T/C (dose: 200.0 mg/kg/injection, schedule: Q01DX011 (im), vehicle: steriod suspending solution): 8 % of control
- T/C (dose: 200.0 mg/kg/injection, schedule: Q01DX011 (oral), vehicle: steriod suspending solution): 42 % of control
- T/C (dose: 200.0 mg/kg/injection, schedule: Q01DX011 (sc), vehicle: steriod suspending solution): 3 % of control
- T/C (dose: 300.0 mg/kg/injection, schedule: Q01DX011 (sc), vehicle: steriod suspending solution): 7 % of control
- T/C (dose: 300.0 mg/kg/injection, schedule: Q03DX004 (sc), vehicle: steriod suspending solution): 15 % of control
- T/C (dose: 350.0 mg/kg/injection, schedule: Q01DX001 (sc), vehicle: steriod suspending solution): 28 % of control and 47 % of control
- T/C (dose: 350.0 mg/kg/injection, schedule: Q07DX002 (sc), vehicle: steriod suspending solution): 19 % of control
- T/C (dose: 400.0 mg/kg/injection, schedule: Q01DX011 (oral), vehicle: steriod suspending solution): 34 % of control
- T/C (dose: 400.0 mg/kg/injection, schedule: Q03DX004 (sc), vehicle: steriod suspending solution): 19 % of control
- T/C (dose: 500.0 mg/kg/injection, schedule: Q01DX011 (oral), vehicle: steriod suspending solution): 37 % of control
- T/C (dose: 600.0 mg/kg/injection, schedule: Q01DX011 (oral), vehicle: steriod suspending solution): 38 % of control
- T/C (dose: 600.0 mg/kg/injection, schedule: Q03DX004 (sc), vehicle: steriod suspending solution): 15 % of control
- T/C (dose: 700.0 mg/kg/injection, schedule: Q01DX001 (sc), vehicle: steriod suspending solution): 26 % of control and 43 % of control
- T/C (dose: 700.0 mg/kg/injection, schedule: Q07DX002 (sc), vehicle: steriod suspending solution): 19 % of control
- T/C (dose: 1000.0 mg/kg/injection, schedule: Q01DX001 (sc), vehicle: steriod suspending solution): 36 % of control and 45 % of control
- T/C (dose: 1000.0 mg/kg/injection, schedule: Q## X002 (sc), vehicle: steriod suspending solution): 22 % of control
- T/C (dose: 1500.0 mg/kg/injection, schedule: Q01DX001 (sc), vehicle: steriod suspending solution): 24 % of control and 40 % of control
- T/C (dose: 1500.0 mg/kg/injection, schedule: Q## X002 (sc), vehicle: steriod suspending solution): 24 % of control

From PubChem BioAssay AID180 (DTP/NCI, 2004)
